Here are results for 23 molecules from patent US20060148858A1, “1, 2-Azole derivatives with hypoglycemic and hypolipidemic activity” (priority 2002, published 2006).

SMILES strings stand for the structures.

On to `COc1cc(CC(=O)O)cc(OCCCc2cn(-c3ccc(C(F)(F)F)cn3)nc2C(C)C)c1` [Example 203, [3-(3-{3-isopropyl-1-[5-(trifluoromethyl)-2-pyridyl]-1H-pyrazol-4-yl}propoxy)-5-methoxyphenyl]acetic acid], for which the melting point (as a rule, the temperature of the solid-liquid transition) was 109 to 110 °C.

In turn, `CCCc1nn(-c2ccc(C(F)(F)F)cn2)cc1CCCOc1cccc(C(C)(C)C(=O)O)c1` [Example 159, 2-methyl-2-[3-(3-{3-propyl-1-[5-(trifluoromethyl)-2-pyridyl]-1H-pyrazol-4-yl}propoxy)phenyl]propanoic acid] displayed a melting point of 82 to 83 °C.

For the molecule `COc1ccc(CC(=O)O)c(OCCCc2cn(-c3ccc(C(F)(F)F)cn3)nc2C(C)C)c1` [Example 205, [2-(3-{3-isopropyl-1-[5-(trifluoromethyl)-2-pyridyl]-1H-pyrazol-4-yl}propoxy)-4-methoxyphenyl]acetic acid], the melting point is 143 to 144 °C.

Turning to `CCCc1nn(-c2ccc(C(F)(F)F)cn2)cc1CCCOc1c(F)cccc1CC(=O)O` [Example 211, [3-fluoro-2-(3-{3-propyl-1-[5-(trifluoromethyl)-2-pyridyl]-1H-pyrazol-4-yl}propoxy)phenyl]acetic acid], the melting point lay within 105 to 106 °C.

In the case of `CCOc1nn(-c2ccc(C(F)(F)F)cn2)cc1CCCOc1nn(-c2ccccc2)cc1CC(=O)O` [Example 136, [3-(3-{3-ethoxy-1-[5-(trifluoromethyl)-2-pyridyl]-1H-pyrazol-4-yl}propoxy)-1-phenyl-1H-pyrazol-4-yl]acetic acid], the melting point was in the range of 117 to 118 °C.

`CCOc1cc(CCC(=O)O)ccc1OCCCc1cn(-c2ccc(C(F)(F)F)cn2)nc1OCC` [Example 162, 3-[3-ethoxy-4-(3-{3-ethoxy-1-[5-(trifluoromethyl)-2-pyridyl]-1H-pyrazol-4-yl}propoxy)phenyl]propanoic acid] returned a melting point of 114 to 115 °C.

With `Cc1nn(-c2ccc(C(F)(F)F)cn2)cc1COc1ccc(CCC(=O)O)cc1` [Example 9, 3-(4-{3-methyl-1-[5-(trifluoromethyl)-2-pyridyl]-1H-pyrazol-4-ylmethoxy}phenyl)propionic acid], the melting point was in the range of 195 to 196 °C.

`CCc1cccc(CC(=O)O)c1OCCCc1cn(-c2ncc(Cl)cc2Cl)nc1C(C)C` [Example 251, (2-{3-[1-(3,5-dichloro-2-pyridinyl)-3-isopropyl-1H-pyrazol-4-yl]propoxy}-3-ethylphenyl)acetic acid]: the melting point was 93 to 95 °C.

For the molecule `CC(C)c1nn(-c2ccc(C(F)(F)F)cn2)cc1CCCOc1cc(CCC(=O)O)n(C(C)C)n1` [Example 263, 3-[1-isopropyl-3-(3-{3-isopropyl-1-[5-(trifluoromethyl)-2-pyridyl]-1H-pyrazol-4-yl}propoxy)-1H-pyrazol-5-yl]propanoic acid], the melting point is 130 to 131 °C.

For `CCCc1nn(-c2ccc(C(F)(F)F)cn2)cc1CCCOc1c(CC(=O)O)cccc1C(C)C` [Example 359, [3-isopropyl-2-(3-{3-propyl-1-[5-(trifluoromethyl)-2-pyridinyl]-1H-pyrazol-4-yl}propoxy)phenyl]acetic acid], the melting point lay within 102 to 103 °C.

The molecule `CCCc1nn(-c2ccc(C(F)(F)F)cn2)cc1CCCOc1c(C#N)cccc1CC(=O)O` [Example 233, [3-cyano-2-(3-{3-propyl-1-[5-(trifluoromethyl)-2-pyridinyl]-1H-pyrazol-4-yl}propoxy)phenyl]acetic acid] had a melting point of 146 to 147 °C.

`CCOc1cc(OCc2cn(-c3ccc(C(F)(F)F)cn3)nc2C)ccc1CCC(=O)O` [Example 19, 3-(2-ethoxy-4-{3-methyl-1-[5-(trifluoromethyl)-2-pyridyl]-1H-pyrazol-4-ylmethoxy}phenyl)propionic acid] showed a melting point of 151 to 152 °C.

Consider `CCOc1nn(-c2ccc(C(F)(F)F)cn2)cc1CCCOc1cc(CCC(=O)O)cc(OC)c1` [Example 167, 3-[5-(3-{3-ethoxy-1-[5-(trifluoromethyl)-2-pyridyl]-1H-pyrazol-4-yl}propoxy)-3-methoxyphenyl]propanoic acid], for which the melting point was 99 to 100 °C.

The molecule `CCOc1nn(-c2cc(C(F)(F)F)ccn2)cc1CCCOc1cccc(CC(=O)O)c1` [Example 286, [3-(3-{3-ethoxy-1-[4-(trifluoromethyl)-2-pyridinyl]-1H-pyrazol-4-yl}propoxy)phenyl]acetic acid] came in with a melting point of 128 to 130 °C.

Molecule `Cc1nn(-c2ccc(C(F)(F)F)cn2)cc1CCCOc1cc(CCC(=O)O)n(-c2ccccc2)n1` [Example 128, 3-[3-(3-{3-methyl-1-[5-(trifluoromethyl)-2-pyridyl]-1H-pyrazol-4-yl}propoxy)-1-phenyl-1H-pyrazol-5-yl]propionic acid] registered a melting point of 125 to 126 °C.

As for `CC(C)c1nn(-c2ccc(C(F)(F)F)cn2)cc1CCCOc1c(C#N)cccc1CC(=O)O` [Example 231, [3-cyano-2-(3-{3-isopropyl-1-[5-(trifluoromethyl)-2-pyridinyl]-1H-pyrazol-4-yl}propoxy)phenyl]acetic acid], the melting point lay in the range of 144 to 145 °C.

The molecule `CCCc1nn(-c2ccc(C(F)(F)F)cn2)cc1CCCOc1ccc(CCC(=O)O)cc1` [Example 82, 3-[4-(3-{3-propyl-1-[5-(trifluoromethyl)-2-pyridyl]-1H-pyrazol-4-yl}propoxy)phenyl]propionic acid] showed a melting point of 118 to 119 °C.

On to `COc1cccc(OCCCc2cn(-c3ccc(C(F)(F)F)cn3)nc2C(C)C)c1CC(=O)O` [Example 208, [2-(3-{3-isopropyl-1-[5-(trifluoromethyl)-2-pyridyl]-1H-pyrazol-4-yl}propoxy)-6-methoxyphenyl]acetic acid], for which the melting point is 183 to 184 °C.

Consider `CCOc1cc(OCCCc2cn(-c3cc(C(F)(F)F)ccn3)nc2OCC)ccc1CCC(=O)O` [Example 298, 3-[2-ethoxy-4-(3-{3-ethoxy-1-[4-(trifluoromethyl)-2-pyridinyl]-1H-pyrazol-4-yl}propoxy)phenyl]propanoic acid], for which the melting point is 119 to 120 °C.

The molecule `CCCC(=O)Nc1ccc(-n2cc(CCCOc3c(CC(=O)O)cccc3OC)c(C(C)C)n2)nc1` [Example 267, (2-{3-[1-(5-butyrylamino-2-pyridyl)-3-isopropyl-1H-pyrazol-4-yl]propoxy}-3-methoxyphenyl)acetic acid] returned a melting point of 119 to 120 °C.

On to `CCCc1nn(-c2ccc(C(F)(F)F)cn2)cc1CCCCn1cc(CCC(=O)[O-])c(OCC)n1.[Na+]` [Example 78, sodium 3-[3-ethoxy-1-(4-{3-propyl-1-[5-(trifluoromethyl)-2-pyridinyl]-1H-pyrazol-4-yl}butyl)-1H-pyrazol-4-yl]propanoate], for which the melting point lay in the range of 250 to 251 °C.

`CC(C)c1nn(-c2ccc(C(F)(F)F)cn2)cc1COc1cccc(CC(=O)O)c1` [Example 176, 3-{3-isopropyl-1-[5-(trifluoromethyl)-2-pyridyl]-1H-pyrazol-4-yl}methoxyphenylacetic acid] gave a melting point of 114 to 115 °C.

Take `COc1ccc(CCC(=O)O)cc1OCCCc1cn(-c2ccc(C(F)(F)F)cn2)nc1C(C)C` [Example 324, 3-[3-(3-{3-isopropyl-1-[5-(trifluoromethyl)-2-pyridinyl]-1H-pyrazol-4-yl}propoxy)-4-methoxyphenyl]propanoic acid]: the melting point is 93 to 94 °C.
